According to ChEMBL document CHEMBL1159189, “Pyrazolo[3,4-d]pyrimidines; adenosine receptor selectivity” (Bioorg Med Chem Lett, 1995):

Tests used:
Adenosine receptor A1 = target: T1, Adenosine receptor A1 (Rattus norvegicus, UniProt P25099); experiment: Binding affinity for Adenosine A1 receptor by inhibition of [3H]PIA binding to whole rat brain membranes; type: cell membranes, Membrane
T1 sequence (P25099 whole entry): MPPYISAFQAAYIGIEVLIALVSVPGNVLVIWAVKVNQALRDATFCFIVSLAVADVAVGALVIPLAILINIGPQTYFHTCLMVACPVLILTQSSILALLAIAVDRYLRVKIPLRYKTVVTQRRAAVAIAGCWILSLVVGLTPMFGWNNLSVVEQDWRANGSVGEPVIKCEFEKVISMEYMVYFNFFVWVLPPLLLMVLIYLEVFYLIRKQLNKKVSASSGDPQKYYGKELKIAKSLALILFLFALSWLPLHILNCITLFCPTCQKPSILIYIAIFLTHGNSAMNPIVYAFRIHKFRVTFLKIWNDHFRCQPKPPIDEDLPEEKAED

[1] = target: Adenosine receptors; A1 & A2a (Rattus norvegicus) (UniProt P25099+P30543); experiment: Ratio of binding affinities for adenosine receptor A2a and adenosine receptor A1; type: protein assay
Chain of Adenosine receptors; A1 & A2a (Rattus norvegicus) (P30543 whole entry, looked up, one chain of several): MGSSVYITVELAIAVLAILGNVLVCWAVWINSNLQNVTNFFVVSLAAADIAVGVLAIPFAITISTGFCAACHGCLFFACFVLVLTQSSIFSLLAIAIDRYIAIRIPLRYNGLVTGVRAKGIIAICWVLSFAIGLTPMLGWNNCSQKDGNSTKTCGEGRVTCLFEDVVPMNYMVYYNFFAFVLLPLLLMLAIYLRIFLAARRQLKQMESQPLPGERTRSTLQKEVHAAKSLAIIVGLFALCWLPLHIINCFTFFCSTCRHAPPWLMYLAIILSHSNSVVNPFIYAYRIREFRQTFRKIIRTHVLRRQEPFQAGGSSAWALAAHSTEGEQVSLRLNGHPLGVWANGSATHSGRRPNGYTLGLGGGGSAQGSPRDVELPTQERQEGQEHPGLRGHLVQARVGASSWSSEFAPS

Adenosine receptor A2a [2] = target: T2, Adenosine receptor A2a (Rattus norvegicus, UniProt P30543); experiment: Binding affinity towards Adenosine A2a receptor by inhibition of [3H]CGS-21680 binding to rat brain striatum membranes; type: cell membranes, Membrane
T2 sequence (P30543 whole entry): as the sequence (P30543 whole entry, looked up, one chain of several) above

Adenosine receptor A2a [3] = target: T2, Adenosine receptor A2a; experiment: Inhibitory activity against Adenosine A2a receptor binding site

Ki (Adenosine receptor A1) | Ratio [1] | Ki (Adenosine receptor A2a [2]) | IC50 (Adenosine receptor A2a [3]) | Structure (SMILES)
28.5 nM | 1.6 | 44.9 nM |  | NC(=O)CSc1nc(N)c2cnn(-c3ccccc3)c2n1
 |  |  | 19200 nM | CCCCn1c(=O)[nH]c2c(cnn2-c2cccc(Cl)c2)c1=N
229 nM |  | 146 nM |  | CC(Sc1nc(SC(C)C(N)=O)c2cnn(-c3ccccc3)c2n1)C(N)=O (stereo not given)
551 nM | 2.3 | 1280 nM |  | CCNC(=O)CCSc1nc(N)c2cnn(-c3ccccc3)c2n1
428 nM | 0.24 | 101 nM |  | NC(=O)CCSc1nc(N)c2cnn(-c3ccccc3)c2n1
12.1 nM | 10.8 | 131 nM |  | CCNC(=O)CSc1nc(N)c2cnn(-c3ccccc3)c2n1
